Results published in patent publication US20110306621A1, “ACYLGUANIDINE DERIVATIVES” (priority 2009, published 2011).

biological target: T1, human 5-HT5A receptor (Homo sapiens, UniProt P47898); assay: Test on a human 5-HT5A receptor binding inhibition ([3H]5-CT); settings: membrane from HEK293 cells for forced expression of human 5-HT5A receptor; Ki calculated from IC50 and Kd of [3H]5-CT (4.95 nM)
T1 construct: expressed in transfected cells; membranes used
Description: The ORF (open reading frame; protein coding region) of a human 5-HT5A receptor (Genbank AF498985) was cloned from a human hippocampus cDNA library, and then inserted into a pCR2.1 vector (Invitrogen), and Escherichia coli containing the plasmid was cultured in a large amount. Next, the full-length cDNA sequence of the human 5-HT5A receptor was analyzed, and recombined into a pcDNA3.1 vector (Invitrogen) as an expression vector and cultured in a large amount. HEK293 established cells (ATCC) derived from the human fetal kidney were seeded, the expression plasmid (1 μg) obtained above were added thereto with LIPOFECTAMINE 2000 (Invitrogen; 2 μl), the gene was transfected into HEK293 cells, and the expression cells were screened with a drug-resistant marker, Geneticin (G418 sulfate 500 μg/ml; Kanto Chemical Co., Inc.). Thus prepared recombinant cells which expressed the gene were cultured in a medium containing D-MEM (Dulbecco's modified eagle medium, Sigma), 10% FCS (Fetal calf serum: fetal bovine serum), 1% Pc./Sm (Penicillin/Streptomycin, Invitrogen), and 500 μg/ml G418 for 3 days. These experimental operations followed a manual for gene operation experiment and an instruction appended in a reagent, and the like, such as a known method (Sambrook, J. et al, Molecular Cloning-A Laboratory Manual”, Cold Spring Harabor laboratory, NY, 1989).
HEK293 cells for forced expressions of a human 5-HT5A receptor were cultured in a F500 plate, and scraped with a scraper. After centrifugation, the precipitate was collected, and an incubation buffer (50 mM Tris (HCl) (pH 7.4), 10 mM MgSO4, and 0.5 mM EDTA (ethylenediamine tetraacetic acid)) was added thereto. After homogenization, it was further centrifuged, and the incubation buffer was added to the precipitate, followed by thoroughly suspending. The operation was repeated, and protein concentration was measured, thereby completing preparation of the membrane.
A solution of the compound to be tested and 100 μM 5-CT (5-carboxamidetriptamine) in DMSO was added to a 96-well plate at 2 μl/well, suspended in an incubation buffer, and a membrane from HEK293 cells for forced expressions of a human 5-HT5A receptor prepared at 200 μg/ml was added at 100 μl/well. After incubation at room temperature for 15 minutes, a [^3H]5-CT solution (2 nM [^3H]5-CT, incubation buffer) was added thereto at 100 μl/well.
Separately, 100 μl of the solution was distributed into a liquid scintillation vial, and 2 ml of Aquasol II (registered trademark) was added thereto, followed by stirring. Then, radioactivity was measured by a liquid scintillation counter. It was incubated at 37° C. for 60 minutes. The reaction mixture was sucked into 96-well GF/C filter plate that had been pre-treated with 0.2% polyethyleneimine, and washed six times with an ice-cooled, 50 mM Tris (pH 7.5) buffer. The GF/C filter plate was dried.
Microscint TMPS (registered trademark) was added thereto at 40 μl/well. Radioactivity remaining on the GF/C filter plate was measured by a top counter.
The [^3H]5-CT binding inhibiting activity by the compound to be tested in each experiment was determined as an IC50 value with a radioactivity upon addition of DMSO alone being 0% inhibition, and a radioactivity upon addition of 1 μM 5-CT being 100% inhibition. Separately, Ki values were calculated from the Kd value of the [^3H]5-CT determined from Scatchard analysis, by the following equation.
Ki=IC50 (1+Concentraion of ligand added/Kd (4.95 nM))

T1 sequence (P47898 whole entry): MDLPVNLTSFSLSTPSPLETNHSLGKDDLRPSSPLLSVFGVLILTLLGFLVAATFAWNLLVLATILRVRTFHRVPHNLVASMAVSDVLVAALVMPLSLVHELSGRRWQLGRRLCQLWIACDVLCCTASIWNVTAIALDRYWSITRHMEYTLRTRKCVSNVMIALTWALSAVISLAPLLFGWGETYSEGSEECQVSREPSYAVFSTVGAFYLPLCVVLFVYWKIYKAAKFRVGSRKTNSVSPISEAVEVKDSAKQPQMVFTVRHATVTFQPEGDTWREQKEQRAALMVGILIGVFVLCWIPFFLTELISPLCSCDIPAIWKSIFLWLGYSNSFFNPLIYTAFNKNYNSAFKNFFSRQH

Ki [nM]	SMILES
3 to 30	N#Cc1cnc(-c2cccc3ccc(C(=O)N=C(N)N)cc23)c(Cl)c1 [Example 196]
3 to 30	NC(N)=NC(=O)c1ccc2cccc(-c3c[nH]c4ccccc34)c2c1 [Example 173]
3 to 30	N#Cc1cc(Cl)ccc1-c1cccc2ccc(C(=O)N=C(N)N)cc12 [Example 33]
3 to 30	Cc1ccc(-c2cccc3ccc(C(=O)N=C(N)N)cc23)cn1 [Example 24]
0.3 to 3	NC(N)=NC(=O)c1ccc2cccc(-c3c(F)cncc3F)c2c1 [Example 31]
0.3 to 3	NC(N)=NC(=O)c1ccc2cccc(-c3c(O)cc(F)cc3F)c2c1 [Example 131]
0.3 to 3	NC(N)=NC(=O)c1ccc2cccc(-c3c(F)ccc(O)c3F)c2c1 [Example 118]
0.3 to 3	NC(N)=NC(=O)c1ccc2cccc(-c3ccc(F)cc3Cl)c2c1 [Example 60]
0.3 to 3	NC(N)=NC(=O)c1ccc2cccc(-c3c(Cl)cccc3Cl)c2c1 [Example 58]
3 to 30	NC(N)=NC(=O)c1ccc2cccc(-c3ccnc(Cl)c3)c2c1 [Example 53]
0.3 to 3	NC(N)=NC(=O)c1ccc2cccc(-c3c(F)ccc(F)c3O)c2c1 [Example 177]
0.3 to 3	N#Cc1ccc(F)c(-c2cccc3ccc(C(=O)N=C(N)N)cc23)c1 [Example 81]
3 to 30	NC(N)=NC(=O)c1ccc2cccc(-c3ncccc3Cl)c2c1 [Example 108]
0.3 to 3	NC(N)=NC(=O)c1ccc2cccc(-c3cc(Cl)ncc3F)c2c1 [Example 197]
0.3 to 3	Cc1nc(C)c(-c2c(F)ccc3ccc(C(=O)N=C(N)N)cc23)s1 [Example 186]
0.3 to 3	N#Cc1c(Cl)cccc1-c1cccc2ccc(C(=O)N=C(N)N)cc12 [Example 85]
0.3 to 3	NC(N)=NC(=O)c1ccc2cccc(-c3cnccc3Cl)c2c1 [Example 73]
3 to 30	NC(N)=NC(=O)c1ccc2cccc(-c3cncc(Cl)c3)c2c1 [Example 74]
3 to 30	NC(N)=NC(=O)c1ccc2cccc(-c3cncc4ccccc34)c2c1 [Example 130]
3 to 30	NC(N)=NC(=O)c1ccc2cccc(-c3cc(Cl)ncc3Cl)c2c1 [Example 38]
3 to 30	NC(N)=NC(=O)c1ccc2cccc(-c3ccccn3)c2c1 [Example 201]
0.3 to 3	NC(N)=NC(=O)c1ccc2cccc(-c3ccccc3Cl)c2c1 [Example 7]
3 to 30	NC(N)=NC(=O)c1ccc2cccc(-c3ccc(Cl)cn3)c2c1 [Example 153]
0.3 to 3	COc1cc(C#N)ccc1-c1cccc2ccc(C(=O)N=C(N)N)cc12 [Example 3]
3 to 30	COc1cccc(C#N)c1-c1cccc2ccc(C(=O)N=C(N)N)cc12 [Example 30]

Ki [nM]	SMILES
3 to 30	NC(N)=NC(=O)c1ccc2cccc(-c3cc(C4CC4)ncc3F)c2c1 [Example 199]
0.3 to 3	NC(N)=NC(=O)c1ccc2cccc(-c3ccncc3F)c2c1 [Example 25]
3 to 30	NC(N)=NC(=O)c1ccc2cccc(-c3ccc(F)cc3OC(F)F)c2c1 [Example 94]
3 to 30	NC(N)=NC(=O)c1ccc2cccc(-c3ccc(F)cn3)c2c1 [Example 134]
3 to 30	COc1ccc(-c2cccc3ccc(C(=O)N=C(N)N)cc23)cn1 [Example 97]
0.3 to 3	NC(N)=NC(=O)c1ccc2cccc(-c3cc(F)ccc3Cl)c2c1 [Example 78]
3 to 30	NC(N)=NC(=O)c1ccc2cccc(-c3ccc(F)nc3)c2c1 [Example 23]
3 to 30	COc1cccc(-c2cccc3ccc(C(=O)N=C(N)N)cc23)c1C#N [Example 99]
0.3 to 3	NC(N)=NC(=O)c1ccc2cccc(-c3cccc(F)c3F)c2c1 [Example 71]
0.3 to 3	COc1nc(C)ccc1-c1c(Cl)ccc2ccc(C(=O)N=C(N)N)cc12 [Example 174]
0.3 to 3	N#Cc1ccc(-c2cccc3ccc(C(=O)N=C(N)N)cc23)c(O)c1 [Example 132]
3 to 30	NC(N)=NC(=O)c1ccc2cccc(-c3cncc(F)c3)c2c1 [Example 55]
0.3 to 3	N#Cc1ccc(-c2c(F)ccc3ccc(C(=O)N=C(N)N)cc23)cc1 [Example 9]
0.3 to 3	N#Cc1ccc(-c2cccc3ccc(C(=O)N=C(N)N)cc23)s1 [Example 50]
0.3 to 3	NC(N)=NC(=O)c1ccc2cccc(-c3cccc(F)c3O)c2c1 [Example 105]
0.3 to 3	NC(N)=NC(=O)c1ccc2cccc(-c3cccc4ccncc34)c2c1 [Example 167]
3 to 30	N#Cc1c(F)cccc1-c1cccc2ccc(C(=O)N=C(N)N)cc12 [Example 29]
3 to 30	NC(N)=NC(=O)c1ccc2cccc(-c3ccc(Cl)nc3Cl)c2c1 [Example 37]
0.3 to 3	N#Cc1cccc(F)c1-c1cccc2ccc(C(=O)N=C(N)N)cc12 [Example 26]
0.3 to 3	NC(N)=NC(=O)c1ccc2cccc(-c3ccccc3O)c2c1 [Example 13]
30 to 300	COc1cncc(-c2cccc3ccc(C(=O)N=C(N)N)cc23)c1 [Example 111]
3 to 30	COc1ncccc1-c1cccc2ccc(C(=O)N=C(N)N)cc12 [Example 8]
0.3 to 3	NC(N)=NC(=O)c1ccc2cccc(-c3ccccc3C3CC3)c2c1 [Example 138]
0.3 to 3	NC(N)=NC(=O)c1ccc2cccc(-c3ccc(Cl)cc3O)c2c1 [Example 150]
0.3 to 3	NC(N)=NC(=O)c1ccc2cccc(-c3c(F)cc(F)cc3F)c2c1 [Example 14]

Ki [nM]	SMILES
0.3 to 3	NC(N)=NC(=O)c1ccc2ccc(Cl)c(-c3ccncc3F)c2c1 [Example 156]
3 to 30	NC(N)=NC(=O)c1ccc2cccc(-c3nccc4ccccc34)c2c1 [Example 165]
0.3 to 3	NC(N)=NC(=O)c1ccc2cccc(-c3cc(Cl)c(F)cc3F)c2c1 [Example 139]
3 to 30	N#Cc1cc(F)ccc1-c1cccc2ccc(C(=O)N=C(N)N)cc12 [Example 16]
3 to 30	NC(N)=NC(=O)c1ccc2cccc(-c3ccnc(F)c3)c2c1 [Example 52]
0.3 to 3	COc1cc(F)c(-c2cccc3ccc(C(=O)N=C(N)N)cc23)c(F)c1 [Example 83]
3 to 30	COc1cccc(-c2cccc3ccc(C(=O)N=C(N)N)cc23)c1F [Example 40]
3 to 30	COCc1cc(F)c(-c2cccc3ccc(C(=O)N=C(N)N)cc23)c(F)c1 [Example 120]
3 to 30	Cc1nc2cccc(-c3cccc4ccc(C(=O)N=C(N)N)cc34)c2o1 [Example 144]
30 to 300	NC(=O)c1cc(-c2cccc3ccc(C(=O)N=C(N)N)cc23)ccn1 [Example 171]
0.3 to 3	COc1cc(Cl)ccc1-c1cccc2ccc(C(=O)N=C(N)N)cc12 [Example 57]
3 to 30	NC(N)=NC(=O)c1ccc2cccc(-c3cncs3)c2c1 [Example 182]
3 to 30	N#Cc1cccc(Cl)c1-c1cccc2ccc(C(=O)N=C(N)N)cc12 [Example 164]
0.3 to 3	COc1cccc(F)c1-c1cccc2ccc(C(=O)N=C(N)N)cc12 [Example 18]
0.3 to 3	NC(N)=NC(=O)c1ccc2cccc(-c3cccc(Cl)c3Cl)c2c1 [Example 75]
3 to 30	COc1ccc(C#N)cc1-c1cccc2ccc(C(=O)N=C(N)N)cc12 [Example 15]
30 to 300	COc1ccncc1-c1cccc2ccc(C(=O)N=C(N)N)cc12 [Example 98]
3 to 30	Cc1cc(-c2cccc3ccc(C(=O)N=C(N)N)cc23)ccn1 [Example 141]
0.3 to 3	NC(N)=NC(=O)c1ccc2cccc(-c3c(F)cc(Cl)cc3F)c2c1 [Example 43]
0.3 to 3	NC(N)=NC(=O)c1ccc2cccc(-c3cccc4cnccc34)c2c1 [Example 128]
0.3 to 3	NC(N)=NC(=O)c1ccc2cccc(-c3cc(F)c(F)cc3F)c2c1 [Example 96]
30 to 300	N#Cc1ccc(F)cc1-c1cccc2ccc(C(=O)N=C(N)N)cc12 [Example 39]
3 to 30	NC(N)=NC(=O)c1ccc2cccc(-c3cccnc3)c2c1 [Example 21]
